Results: patent publication US5110911A, “Human tumor-associated Thomsen-Friedenreich antigen” (Biomira, Inc., priority 1989, dated 1992)
Values belong to the molecule of their own block, whether it stands above or below them.

Experiments:
49H.8 = conditions: inhibitor concentration of 2 mg/ml; cited from earlier work
[1] = test system: TF Antigen Binding with MAb 49H.8 (LS174T Conditioned Medium); test: Inhibition of TF antigen binding with MAb 49H.8 by synthetic carbohydrates in SRIA, LS174T conditioned medium; parameters: species or system human
Protocol: (§1) Breakable strips of microtitre wells were coated with MAb […].8 or a control antibody (MOPC-104E), 1 μg/well, by overnight incubation at 4° C. The wells were then serially incubated with FBS 5% in PBS at 37° C. for 30 minutes, with antigen solution at 37° C. for two hours, and with radioiodinated PNA (2×10^5 cpm/well) at room temperature for two hours. The wells were washed with PBS containing 0.05% Tween-20 after each of the above steps. Each well was counted for ^125 I activity using a gamma counter.

[2] = test system: TF Antigen Binding with MAb 49H.8 (647V Conditioned Medium); test: Inhibition of TF antigen binding with MAb 49H.8 by synthetic carbohydrates in SRIA, 647V conditioned medium; parameters: species or system human
Protocol: as §1

[3] = test system: TF Antigen Binding with MAb 49H.8 (PE89); test: Inhibition of TF antigen binding with MAb 49H.8 by synthetic carbohydrates in SRIA, PE89; parameters: species or system human
Protocol: as §1

[4] = test system: TF Antigen Binding with MAb 49H.8 (Ta3-Ha Conditioned Medium); test: Inhibition of TF antigen binding with MAb 49H.8 by synthetic carbohydrates in SRIA, Ta3-Ha conditioned medium; parameters: species or system murine
Protocol: as §1

[5] = test system: antigen capture by MAb 49H.8; test: Inhibition of the antigen capture by synthetic carbohydrate haptens; assay type: binding
Protocol: as §1

carcinoma cell lines = conditions: all nine cell lines named; cited from earlier work

Molecule: OC[C@H]1OC(O)[C@H](O)[C@@H](O)[C@H]1O (stereo partly drawn) [D-Gal]
- inhibition in binding of 49H.8 to neuraminidase-treated erythrolytes (49H.8): 5%

- % Inhibition ± SD, LS174T Conditioned Medium ([1]; inhibitor 5 mM): 86.95%
- % Inhibition ± SD, LS174T Conditioned Medium ([1]; inhibitor 10 mM): 95.91%
- % Inhibition ± SD, 647V Conditioned Medium ([2]; inhibitor 5 mM): 66.60%
- % Inhibition ± SD, 647V Conditioned Medium ([2]; inhibitor 10 mM): 90.12%
- % Inhibition ± SD, PE89 ([3]; inhibitor 5 mM): 45.48%
- % Inhibition ± SD, PE89 ([3]; inhibitor 10 mM): 69.04%
- % Inhibition ± SD, Ta3-Ha Conditioned Medium ([4]; inhibitor 5 mM): 69.40%
- % Inhibition ± SD, Ta3-Ha Conditioned Medium ([4]; inhibitor 10 mM): 96.25%
Molecule: OC[C@H]1O[C@@H](Oc2ccccc2)[C@H](O)[C@@H](O)[C@H]1O [Phenyl-β-D-galactoside]
- Inhibition of the positive reactivity in the sandwich assay (in words) [5]: inhibited

- % Inhibition ± SD, LS174T Conditioned Medium ([1]; inhibitor 5 mM): -7.15%
- % Inhibition ± SD, LS174T Conditioned Medium ([1]; inhibitor 10 mM): -1.67%
- % Inhibition ± SD, 647V Conditioned Medium ([2]; inhibitor 5 mM): -3.00%
- % Inhibition ± SD, 647V Conditioned Medium ([2]; inhibitor 10 mM): 0.58%
- % Inhibition ± SD, PE89 ([3]; inhibitor 5 mM): -6.41%
- % Inhibition ± SD, PE89 ([3]; inhibitor 10 mM): -4.61%
- % Inhibition ± SD, Ta3-Ha Conditioned Medium ([4]; inhibitor 5 mM): 3.92%
- % Inhibition ± SD, Ta3-Ha Conditioned Medium ([4]; inhibitor 10 mM): 1.38%
Molecule: OC[C@H]1O[C@@H](Oc2ccccc2)[C@H](O)[C@@H](O)[C@@H]1O [Phenyl-β-D-glucoside]
- Inhibition of the positive reactivity in the sandwich assay (in words) [5]: did not show any inhibition

Molecule: CC(=O)N[C@@H]1[C@@H](O[C@@H]2O[C@H](CO)[C@H](O)[C@H](O)[C@H]2O)[C@@H](O)[C@@H](CO)O[C@@H]1O [TF disaccharide, D-β-Gal (1-3)-α-GalNAc]
- inhibition in binding of 49H.8 to neuraminidase-treated erythrolytes (49H.8): 33%

Molecule: CC(=O)N[C@@H]1[C@@H](O[C@@H]2O[C@H](CO)[C@H](O)[C@H](O)[C@H]2O)[C@@H](O)[C@@H](CO)O[C@H]1O [beta anomer]
- inhibition in binding of 49H.8 to neuraminidase-treated erythrolytes (49H.8): 29%

Molecule: O=[N+]([O-])c1ccc(O[C@@H]2O[C@H](CO)[C@H](O)[C@H](O)[C@H]2O)cc1 [p-nitrophenyl-β-D-galactoside]
- Inhibition of the positive reactivity in the sandwich assay (in words) [5]: inhibited

Molecule: p-nitrophenyl-α-D-galactoside [p-nitrophenyl α-D-galactoside]
- Inhibition of the positive reactivity in the sandwich assay (in words) [5]: did not show any inhibition

B1: PNA: lectin extracted from the peanut (Arachis hypogaea) which recognizes the terminal disaccharide of the TF-antigen (protein, UniProt P02872 24-273, looked up)
Galactose-binding lectin: AETVSFNFNSFSEGNPAINFQGDVTVLSNGNIQLTNLNKVNSVGRVLYAMPVRIWSSATGNVASFLTSFSFEMKDIKDYDPADGIIFFIAPEDTQIPAGSIGGGTLGVSDTKGAGHFVGVEFDTYSNSEYNDPPTDHVGIDVNSVDSVKTVPWNSVSGAVVKVTVIYDSSTKTLSVAVTNDNGDITTIAQVVDLKAKLPERVKFGFSASGSLGGRQIHLIRSWSFTSTLITTTRRSIDNNEKKIMNMASA
- Binding to carcinoma cell lines (carcinoma cell lines): marked
